Tests used:
[1] = system: NSC treated with MCAD-IgG; test: Attenuation of MCAD-IgG effect on NSC differentiation (beta-III tubulin/GFAP immunostaining); type: cell-based, human
Procedure: Cell Proliferation and Differentiation Assays. Cell proliferation was assessed by BrdU incorporation. The cells were first treated with MCAD or control antibodies for 18 hours and then for 6 hours with BrdU (Sigma) followed by immunostaining for BrdU. When subjected to differentiation, media was replaced with DMEM/F12 containing 2% FBS. The NPC were capable of differentiating into neurons (40-60%) and astrocytes (20-50%) after 4-7 days. Immunocytochemistry. Cells were fixed in 4% (w/v) paraformaldehyde and permeabilized by incubation in 0.5% (v/v) Triton X-100 in PBS (PBS-T) for 20 min. For BrdU staining, the cells were also denatured in 2N HCl at 37° C. for 30 min and rinsed twice in 0.1 M sodium borate, pH 8.5. Cells were immunostained using monoclonal anti-BrdU (1:1000; Sigma-Aldrich), monoclonal anti-β-III-tubulin (1:1000; Promega), rabbit anti-GFAP (1:1000; Sigma-Aldrich), monoclonal anti-AT-1 (1:50; Abcam, Cambridge Mass.) or rabbit anti-active caspase-3 (1:1000; Sigma-Aldrich), followed by corresponding secondary antibodies (anti-rabbit Alexa Fluor 488, 1:400; anti-mouse Alexa Fluor […], 1:400; Invitrogen) and 4′,6-diamidino-2-phenylindole (DAPI) for nuclear staining. Images were acquired on a Zeiss LSM 510 META multiphoton confocal system (Carl Zeiss). […] Neurogenesis was determined after 4 days using immunostaining for beta-III tubulin and GFAP.

NSC = test: CellQuanti-Blue cytotoxicity assay; type: cell-based; conditions: higher concentrations, 10-100 uM
Procedure: Cytotoxicity Assays. Cytotoxicity was determined by using CellQuanti-Blue Cell Viability Assay kit (BioAssay Systems) as previously published^24. Briefly, NSCs were cultured in poly-D-lysine coated 96-well plates and used for experiments at ˜60% confluence. […] After 24 hours, CellQuanti-Blue solution (10 μl/well) was added and the cells were incubated for 1 hour. The fluorescence was quantified at an excitation wavelength of 530 nm and emission wavelength of 590 nm using a fluorescence plate reader.
MCAD-IgG Inhibits NSC Proliferation. The effect of MCAD on NSC proliferation was studied by exposing cultured human NSC to corresponding concentrations (1:500 to 1:50) of MCAD or MUC antibodies for 24 hours in the presence of BrdU for the last 6 hours. The number of proliferating cells were determined by calculating the percentage of BrdU immunopositive cells. […] Another group of NSC similarly treated with the MCAD or MUC antibodies were also immunostained for active-caspase-3 to determine if MCAD-IgG could induce apoptosis in these cells. […] Cell toxicity was also evaluated using cellquanti-blue assay. To exclude the effect of cell proliferation, NSC cultures were treated with MCAD- or MUC-IgG in growth factor-free media for 24 hours before the cellquanti-blue solution was added. […] Thus MCAD-IgG inhibited NSC proliferation without causing cell death.

AT-1 receptor = target: T1, AT-1 receptor (Homo sapiens, UniProt P30556); conditions: in vitro, IgG from pre-eclamptic patients; cited from earlier work
T1 construct: found prominent expression of the receptor on the cell surface; endogenous in cells; host or cells: human fetal brain-derived neural stem/progenitor cells (NSC/NPC), 7-8 weeks gestation
T1 sequence (P30556 1-359): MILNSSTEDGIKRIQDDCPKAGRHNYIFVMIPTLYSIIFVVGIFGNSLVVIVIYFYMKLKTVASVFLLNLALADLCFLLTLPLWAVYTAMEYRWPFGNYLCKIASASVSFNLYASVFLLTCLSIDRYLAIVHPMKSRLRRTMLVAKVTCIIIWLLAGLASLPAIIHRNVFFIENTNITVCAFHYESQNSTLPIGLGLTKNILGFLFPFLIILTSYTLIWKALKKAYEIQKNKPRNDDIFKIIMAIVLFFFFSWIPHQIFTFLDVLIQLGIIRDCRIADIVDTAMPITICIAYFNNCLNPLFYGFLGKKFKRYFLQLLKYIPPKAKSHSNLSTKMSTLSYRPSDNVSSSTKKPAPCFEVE

human NSC = test: NSC proliferation by BrdU incorporation; type: cell-based; conditions: preliminary in vitro study
Procedure: Cell Cultures. Reagents for cell culture were purchased from Invitrogen (Carlsbad, Calif.) if not otherwise specified. Human NPC were cultured as published previously ^24 in accordance with NIH guidelines and following approval by the Institutional Review Board at Johns Hopkins University and the National Institutes of Health. Briefly, human fetal brain specimens of 7-8 weeks gestation were obtained from Birth Defects Research Laboratory, University of Washington, Seattle. The tissues were then triturated into single cells after removing meninges and blood vessels. […] NSC cultures were ready for experiments 4-5 days after replating and >98% of the cells expressed the neural stem cell marker, nestin while <1% of the cells expressed glial fibrillary acidic protein (GFAP, a marker for astrocytes) or beta-III tubulin (a neuronal cell marker) as determined by immunocytochemistry.
Cell Proliferation and Differentiation Assays. Cell proliferation was assessed by BrdU incorporation. […]
MCAD-IgG Inhibits NSC Proliferation. […] The number of proliferating cells were determined by calculating the percentage of BrdU immunopositive cells. […] Cell toxicity was also evaluated using cellquanti-blue assay. […]

With CCCc1nc2c(C)cc(-c3nc4ccccc4n3C)cc2n1Cc1ccc(-c2ccccc2C(=O)O)cc1 [Telmisartan] the “effect on MCAD-IgG caused changes in neuronal and astroglial differentiation” value ([1]; 10 nM, pretreatment 30 min prior to IgG) was “significantly attenuated MCAD-IgG caused effect on neuronal and astroglial differentiation” and the “toxicity in cells, cellquanti-blue” value (NSC) was “caused toxicity in cells”.
For CCCCc1nc(Cl)c(CO)n1Cc1ccc(-c2ccccc2-c2nn[nH]n2)cc1 [losartan], the “blockade of patient IgG-induced constriction of villus veins and arteries” value (AT-1 receptor) is listed as “could be blocked”.
In the case of Fc1ccc([C@@H]2CCNC[C@H]2COc2ccc3c(c2)OCO3)cc1 [Paroxetine, paroxetine], the “proliferation of NSC” value (human NSC) was “increased proliferation of NSC in a concentration-dependent manner” and the “effect on MCAD-IgG caused inhibition of neurogenesis and enhanced astroglial differentiation” value ([1]; 20 nM-2 uM, 1 hour prior to MCAD-IgG (1:50), after 4 days) was “reversed MCAD-IgG caused inhibition of neurogenesis and enhanced astroglial differentiation”.

— patent US10837969B2, “Therapeutic and diagnostic methods for autism spectrum disorders and other conditions” (THE JOHNS HOPKINS UNIVERSITY, priority 2012, dated 2020)
